Series [1] addresses T1, mGluR5 receptors (Homo sapiens, UniProt P41594).
T1 construct: expressed in transfected cells; host or cells: transiently or stably transfected cell lines (e.g., HEK293, COS, CHO, NIH3T3)
Put plainly: In vitro binding to glutamate receptors ([^3H]MPEP displacement, membranes of transfected cell lines). Particulars: mGluR5, radioligand [^3H]MPEP. As for the experimental part:
The assay buffer is Standard Binding Buffer (50 mM Tris-HCl, 10 mM MgCl2, 0.1 mM EDTA, pH 7.4) and the membrane fraction source is transiently or stably transfected cell lines (e.g., HEK293, COS, CHO, NIH3T3)
Aliquots (50 μL) of radioligand are dispensed into the wells of a 96-well plate containing 100 μl of Standard Binding Buffer. Then, duplicate 50-μL aliquots of the test and reference compound dilutions are added.
The 250-4, reactions are incubated at room temperature and shielded from light (to prevent photolysis of light-sensitive ligands) for 1 hour, then harvested by rapid filtration onto Whatman GF/B glass fiber filters pre-soaked with 0.3% polyethyleneimine using a 96-well Brandel harvester. Four rapid 500-μL washes are performed with chilled Standard Binding Buffer to reduce non-specific binding. Filters are placed in 6-mL scintillation tubes and allowed to dry overnight. The next day, 4 mL of EcoScint scintillation cocktail (National Diagnostics) are added to each tube. The tubes are capped, labeled, and counted by liquid scintillation counting. […] The filter mats are dried, then scintillant is melted onto the filters and the radioactivity retained on the filters is counted in a Microbeta scintillation counter.
Raw data (dpm) representing total radioligand binding (i.e., specific+non-specific binding) are plotted as a function of the logarithm of the molar concentration of the competitor (i.e., test or reference compound).
Ki=IC50/(1+[ligand]/KD) (Eqn. 2)
where [ligand] equals the assay radioligand concentration and KD equals the affinity constant of the radioligand for the target receptor.

For series [2] the following is noted: monkey; cited from earlier work.
For series [3] the following is noted: rat; cited from earlier work.
The conditions of series [4]: human subjects; cited from earlier work.

Read-outs that look alike come from different tables or passages of the source. Where only a bound is given, the exact number is not on record here.

T1 sequence (P41594 21-1212): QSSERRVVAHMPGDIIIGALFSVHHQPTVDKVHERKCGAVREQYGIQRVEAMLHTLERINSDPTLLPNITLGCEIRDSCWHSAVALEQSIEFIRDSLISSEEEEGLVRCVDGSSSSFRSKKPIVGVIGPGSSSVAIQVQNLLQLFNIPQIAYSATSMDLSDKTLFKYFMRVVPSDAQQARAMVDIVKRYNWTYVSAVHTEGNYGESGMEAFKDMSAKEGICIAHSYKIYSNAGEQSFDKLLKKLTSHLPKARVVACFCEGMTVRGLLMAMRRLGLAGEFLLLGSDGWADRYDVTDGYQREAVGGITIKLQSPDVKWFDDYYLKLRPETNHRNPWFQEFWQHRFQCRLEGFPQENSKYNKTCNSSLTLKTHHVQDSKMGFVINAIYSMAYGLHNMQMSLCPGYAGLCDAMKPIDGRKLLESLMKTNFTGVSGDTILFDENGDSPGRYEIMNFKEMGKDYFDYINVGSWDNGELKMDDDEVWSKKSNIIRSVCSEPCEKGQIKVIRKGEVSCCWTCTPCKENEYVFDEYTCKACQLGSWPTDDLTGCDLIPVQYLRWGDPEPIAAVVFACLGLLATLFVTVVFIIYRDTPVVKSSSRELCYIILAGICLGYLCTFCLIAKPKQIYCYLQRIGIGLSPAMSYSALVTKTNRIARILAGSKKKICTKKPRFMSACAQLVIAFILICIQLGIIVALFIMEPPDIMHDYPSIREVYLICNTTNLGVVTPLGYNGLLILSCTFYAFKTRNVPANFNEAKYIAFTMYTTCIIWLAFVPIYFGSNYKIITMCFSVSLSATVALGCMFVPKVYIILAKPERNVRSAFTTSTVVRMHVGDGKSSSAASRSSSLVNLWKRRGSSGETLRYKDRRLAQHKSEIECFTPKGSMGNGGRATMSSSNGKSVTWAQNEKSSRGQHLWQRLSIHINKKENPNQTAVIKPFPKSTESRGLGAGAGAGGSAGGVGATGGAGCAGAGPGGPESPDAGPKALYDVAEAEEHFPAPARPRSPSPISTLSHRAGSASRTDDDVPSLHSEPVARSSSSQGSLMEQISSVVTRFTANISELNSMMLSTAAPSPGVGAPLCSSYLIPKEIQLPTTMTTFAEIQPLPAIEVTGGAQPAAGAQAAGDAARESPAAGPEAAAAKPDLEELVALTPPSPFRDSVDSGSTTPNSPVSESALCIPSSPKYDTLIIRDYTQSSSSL

The term Ki denotes a dissociation constant, usually derived from enzyme kinetics or from competition with a known ligand. A high value points to weaker binding. `N#CCc1cccc(C#Cc2csc(F)n2)c1` [Compound 16]: the Ki in series [1] was less than 50 nM.
`N#Cc1cc(F)cc(C#Cc2csc(F)n2)c1` [Compound 14, 3-fluoro-5-((2-fluorothiazol-4-yl)ethynyl)benzonitrile]: the Ki in series [1] was less than 50 nM.
Same read-out and setting: with `N#Cc1cccc(C#Cc2csc(F)n2)c1` [Compound 13, (5-((2-fluorothiazol-4-yl)ethynyl)benzonitrile)] the figure was less than 50 nM; with `COc1cccc(C#Cc2csc(F)n2)c1` [Compound 15], less than 50 nM.
`N#Cc1cc(F)cc(C#Cc2csc(C[18F])n2)c1` [[^18F]SP203, 3-fluoro-5-[[2-([^18F]fluoromethyl)thiazol-4-yl]ethynyl]benzonitrile]: the defluorination result is given as “rapidly defluorinated” in series [2], “rapidly defluorinated” in series [3] and “slower or negligible” in series [4].
On to `Fc1nc(C#Cc2ccccc2)cs1` [Compound 12, 2-fluoro-4-(phenylethynyl)thiazole], for which the Ki in series [1] was less than 150 nM.

Source of the values: patent publication US20110098326A1, “2-FLUOROTHIAZOLE DERIVATIVES USEFUL AS IMAGING AGENTS; METHODS OF SYNTHESIS, AND METHODS OF USE” (priority 2009, published 2011).
